Data: patent publication US5607914A, “Synthetic antimicrobial peptides” (Pioneer Hi-Bred International, Inc., priority 1994, dated 1997)
Read-outs that look alike come from different tables or passages of the source. No end group written: not given here.

Tests used:
F. graminearum = format: cell-based
F. moniliforme = test: Antifungal activity of synthetic peptides (MIC/MCIC); format: cell-based
A. flavus = test: as above; format: cell-based

## Cecropin A (KWKLFKKIEKVGQNIRDGIIKAGPAVAVVGQATQIAK; ends and bridges not checked; UniProt P01507 27-63, looked up)
F. graminearum; F. graminearum, score of 1 or greater (25% growth inhibition)
  MIC: 60 µg/mL
F. graminearum; F. graminearum, score of 3 or greater (≥80% growth inhibition)
  MCIC: > 80 µg/mL
F. moniliforme
  MCIC: > 80
  MIC: 80 µg/mL
A. flavus
  MCIC: > 80
  MIC: 80 µg/mL

## KLKKALRWLARHAK [Peptide 20]
E. coli
  MIC: 3.13 μg per ml
C. nebraskense
  MIC: 3.13 μg per ml
A. tumefaciens
  MIC: 3.13 μg per ml

## KWKKALRALARHLK [Peptide 19]
E. coli
  MIC: 6.25 μg per ml
C. nebraskense
  MIC: 3.13 μg per ml
A. tumefaciens
  MIC: 6.25 μg per ml

## Mastoparan
F. graminearum
  MCIC: 10
  MIC: 5 µg/mL
F. moniliforme; F. moniliforme, score of 1 or greater (25% growth inhibition)
  MIC: 2.5 µg/mL
F. moniliforme; F. moniliforme, score of 3 or greater (≥80% growth inhibition)
  MCIC: 10 µg/mL
A. flavus; A. flavus, concentration achieving a score of 1 or greater (25% growth inhibition)
  MIC: 20 µg/mL
A. flavus; A. flavus, concentration achieving a score of 3 or greater (≥80% growth inhibition)
  MCIC: 40 µg/mL

## RRIYRAIRHIPRRIR [Peptide 22]
E. coli; E. coli
  MIC: 3.13 μg per ml
C. nebraskense; C. nebraskense
  MIC: 12.5 μg per ml
